Earlier results as cited in article PMC10289985, “Brigatinib pharmacokinetics in patients with chronic hepatic impairment” (Investigational New Drugs, 2023).
Where two headings read alike, the source gives them in different places.

Legend:
[1] = parameters: method as in PMID 29468455; details: patients with moderate or severe hepatic impairment; cited from earlier work
[2] = parameters: method as in PMID 30052269; details: cited from earlier work
[3] = parameters: method as in ref 26 = [26]; 26. Zykadia [package insert] (2021) Novartis Pharmaceuticals Corporation, East Hanover, NJ; details: cited from earlier work

## C[C@@H](Oc1cc(-c2cnn(C3CCNCC3)c2)cnc1N)c1c(Cl)ccc(F)c1Cl [crizotinib]
[1]
  change of concentrations in hepatic impairment: increased

## CCc1cc2c(cc1N1CCC(N3CCOCC3)CC1)C(C)(C)c1[nH]c3cc(C#N)ccc3c1C2=O [alectinib]
[2]; moderate hepatic impairment vs matched healthy participants
  increase of combined systemic exposures (AUC) of alectinib and its M4 metabolite: 36%
[2]; severe hepatic impairment vs matched healthy participants
  increase of combined systemic exposures (AUC) of alectinib and its M4 metabolite: 76%

## Cc1cc(Nc2ncc(Cl)c(Nc3ccccc3S(=O)(=O)C(C)C)n2)c(OC(C)C)cc1C1CCNCC1 [ceritinib]
[3]; mild and moderate hepatic impairment
  systemic exposures compared with healthy participants: similar
[3]; severe hepatic impairment
  increase of unbound systemic exposure (AUC): 108%
